# Results: patent US20190166841A1, “Method for Controlling PPO Resistant Weeds” (BASF SE, priority 2016, published 2019)
# Columns and labels:
# Format in all cases: in vivo
# [1] = tested on: Amaranthus tamariscinus (Common waterhemp, AMATA), Sensitive biotype (w.1); test: Greenhouse herbicidal activity test, sensitive waterhemp w.1; settings: use rate 4 g/ha, scale 0 to 100 (100 = complete destruction, 0 = no damage)
# Description: (§1) The culture containers used were plastic flowerpots containing loamy sand with approximately 3.0% of humus as the substrate. The seeds of the test plants were sown separately for each species and/or resistant biotype. For the pre-emergence treatment, the active ingredients, which had been suspended or emulsified in water, were applied directly after sowing by means of finely distributing nozzles. The containers were irrigated gently to promote germination and growth and subsequently covered with transparent plastic hoods until the plants had rooted. This cover caused uniform germination of the test plants, unless this had been impaired by the active ingredients. For the post-emergence treatment, the test plants were first grown to a height of 3 to 15 cm, depending on the plant habit, and only then treated with the active ingredients which had been suspended or emulsified in water. For this purpose, the test plants were either sown directly and grown in the same containers, or they were first grown separately as seedlings and transplanted into the test containers a few days prior to treatment. Depending on the species, the plants were kept at 10-25° C. or 20-35° C., respectively. The test period extended over 2 to 4 weeks. During this time, the plants were tended, and their response to the individual treatments was evaluated. The evaluation was carried out by using a scale from 0 to 100. […]
# [2] = tested on: Amaranthus tamariscinus (Common waterhemp, AMATA), PPO resistant biotype 1 (w.2); test: Greenhouse herbicidal activity test, PPO resistant waterhemp w.2; settings: use rate 4 g/ha, scale 0 to 100
# Description: as §1
# [3] = tested on: Amaranthus tamariscinus (Common waterhemp, AMATA), PPO resistant biotype 2 (w.3); test: Greenhouse herbicidal activity test, PPO resistant waterhemp w.3; settings: use rate 4 g/ha, scale 0 to 100
# Description: as §1
# [4] = tested on: Amaranthus tamariscinus (Common waterhemp, AMATA), PPO resistant biotype 3 that was shown to contain the ΔG210 mutation (w.4); test: Greenhouse herbicidal activity test, PPO resistant waterhemp w.4; settings: use rate 4 g/ha; PPO resistant biotype 3 with ΔG210 mutation; scale 0 to 100
# Description: as §1
smiles,measurement,setting,value
"CCS(=O)(=O)Nc1cc(-n2nc(C(F)(F)F)n(C)c2=O)c(F)cc1C(N)=S [(I).1, bencarbazone]",Weed control (%) w.1,[1],92%
same,Weed control (%) w.2,[2],100%
same,Weed control (%) w.3,[3],100%
same,Weed control (%) w.4,[4],82%
